# From patent US10526502B2, “Container coating system” (SWIMC LLC, priority 2012, dated 2020)
# System: not listed separately
# Experiment: suitable genotoxicity assays (e.g., Ames II assay)
# Format: cell-based
# Conditions: not given
# Experimental: A solution of 4,4′-methylenebis(2,6-di-t-butylphenol) (500 grams, 1.076 moles obtained from Albemarle Corporation) in anhydrous dimethylformamide (1.5 liters) was cooled to −10° C. and a solution of sodium tert-pentoxide (374 grams, 3.23 moles) in anhydrous dimethylformamide (1.5 liters) was added dropwise at −10 to −5° C. The mixture was stirred for 30 minutes at −10° C. Epichlorohydrin (1.9 liters, 24.2 moles) was added via dropping funnel at −10 to −5° C. The solution was allowed to warm up to room temperature and then was heated for 16 hours at a temperature of from 75 to 82° C. After cooling down to ambient temperature, the mixture was added to cold tap water (12 liters). Ethyl acetate (5 liters) was added to the mixture, which was stirred for 10 minutes and separated. The aqueous layer was extracted again with additional ethyl acetate (3 liters). The combined ethyl acetate extracts were washed twice with brine (2×6 liters), dried over anhydrous sodium sulfate (600 grams), and filtered. The solvent was removed under reduced pressure to give 887 grams of crude product as a purple oil. The crude product was dissolved in toluene (600 milliliters) and passed over a silica gel pad (1.4 kilograms), and eluted with a mixture of toluene and heptane (8 parts toluene to 2 parts heptane). The fractions containing product were combined and evaporated under reduced pressure. […]
row,SMILES,genotoxicity
1,"CC(C)(C)c1cc(Cc2cc(C(C)(C)C)c(OCC3CO3)c(C(C)(C)C)c2)cc(C(C)(C)C)c1OCC1CO1 (stereo not shown) [Diglycidyl ether of 4,4′-methylenebis(2,6-di-tert-butylphenol)]",non-genotoxic
2,"CCCC(c1cc(C(C)(C)C)c(OCC2CO2)cc1C)c1cc(C(C)(C)C)c(OCC2CO2)cc1C (stereo not shown) [Diglycidyl ether of 4,4′Butylidenebis(2-t-butyl-5-methylphenol))]",non-genotoxic

# Target: T1, human estrogen receptor (Homo sapiens, UniProt P03372)
# T1 sequence (P03372 1-595): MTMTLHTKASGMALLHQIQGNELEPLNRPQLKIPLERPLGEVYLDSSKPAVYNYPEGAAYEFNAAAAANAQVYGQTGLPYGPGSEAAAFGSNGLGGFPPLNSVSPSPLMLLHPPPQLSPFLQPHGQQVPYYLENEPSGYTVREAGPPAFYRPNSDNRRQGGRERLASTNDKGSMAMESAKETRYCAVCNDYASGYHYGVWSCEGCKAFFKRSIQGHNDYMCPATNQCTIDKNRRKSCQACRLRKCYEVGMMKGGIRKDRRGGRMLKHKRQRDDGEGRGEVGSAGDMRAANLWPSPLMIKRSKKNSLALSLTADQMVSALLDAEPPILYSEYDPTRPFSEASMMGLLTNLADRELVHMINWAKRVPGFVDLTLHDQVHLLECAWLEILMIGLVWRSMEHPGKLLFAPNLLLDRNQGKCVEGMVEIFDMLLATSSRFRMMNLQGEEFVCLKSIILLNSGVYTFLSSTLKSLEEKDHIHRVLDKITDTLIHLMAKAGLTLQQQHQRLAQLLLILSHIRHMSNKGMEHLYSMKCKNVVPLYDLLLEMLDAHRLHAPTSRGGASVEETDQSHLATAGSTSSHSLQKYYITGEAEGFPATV
# Experiment: suitable in vitro assay whose results are directly correlated to the MCF-7 assay
# Conditions: in vitro assay correlated to MCF-7 through common reference compounds
row,SMILES,estrogenic activity
1,"Cc1cc(Cc2cc(C)c(O)c(C)c2)cc(C)c1O [Structure 6, 4,4′-methylenebis(2,6-dimethylphenol)]",do not exhibit appreciable estrogenic activity
2,Cc1cc(Cc2cc(C)cc(C(C)(C)C)c2O)c(O)c(C(C)(C)C)c1 [Structure 9],do not exhibit appreciable estrogenic activity
3,"CCCC(c1cc(C(C)(C)C)c(O)cc1C)c1cc(C(C)(C)C)c(O)cc1C [Structure 7, 4,4′-butylidenebis(2-t-butyl-5-methylphenol)]",do not exhibit appreciable estrogenic activity
4,"CC(C)(C)c1cc(Cc2cc(C(C)(C)C)c(O)c(C(C)(C)C)c2)cc(C(C)(C)C)c1O [Structure 8, 4,4′-methylenebis(2,6-di-t-butylphenol)]",do not exhibit appreciable estrogenic activity
5,"CC(C)(C)c1cc(O)c(C(C)(C)C)cc1O [Structure 12, 2,5-di-t-butylhydroquinone]",do not exhibit appreciable estrogenic activity

# System: MCF-7, clone WS8, cells
# Experiment: MCF-7 cell proliferation assay of estrogenic activity
# Format: cell-based, human
# Conditions: logarithmic (base 10) Relative Proliferative Effect vs 17-beta estradiol; values 'expected or measured'
# Text: The MCF-7 assay is a useful test for assessing whether a polyhydric phenol compound is appreciably non-estrogenic. The MCF-7 assay uses MCF-7, clone WS8, cells to measure whether and to what extent a substance induces cell proliferation via estrogen receptor (ER)-mediated pathways. The method is described in “Test Method Nomination: MCF-7 Cell Proliferation Assay of Estrogenic Activity” submitted for validation by CertiChem, Inc. to the National Toxicology Program Interagency Center for the Evaluation of Alternative Toxicological Methods (NICEATM) on Jan. 19, 2006 (available online at iccvam.niehs.nih.gov/methods/endocrine/endodocs/SubmDoc.pdf).
# A brief summary of the method of the aforementioned MCF-7 assay is provided below. MCF-7, clone WS8, cells are maintained at 37° C. in RMPI (Roswell Park Memorial Institute medium) containing Phenol Red (e.g., GIBCO Catalog Number 11875119) and supplemented with the indicated additives for routine culture. An aliquot of cells maintained at 37° C. are grown for two days in phenol-free media containing 5% charcoal stripped fetal bovine serum in a 25 cm^2 tissue culture flask. Using a robotic dispenser such as an EPMOTION™ 5070 unit from Eppendorf AG, MCF-7 cells are then seeded at 400 cells per well in 0.2 ml of hormone-free culture medium in CORNING™ 96-well plates from Corning Life Sciences. The cells are adapted for 3 days in the hormone-free culture medium prior to adding the chemical to be assayed for estrogenic activity. The media containing the test chemical is replaced daily for 6 days. At the end of the 7 day exposure to the test chemical, the media is removed, the wells are washed once with 0.2 ml of HBSS (Hanks' Balanced Salt Solution), and then assayed to quantify amounts of DNA per well using a micro-plate modification of the Burton diphenylamine (DPA) assay, which is used to calculate the level of cell proliferation. […]
# Table I shown below includes exemplary preferred polyhydric phenol compounds of Formula II and their expected or measured logarithmic RPE values in the MCF-7 assay.
row,SMILES,Log RPE
1,O=S(=O)(c1ccc(O)cc1)c1ccc(O)cc1 [Bisphenol S],−2
2,C[C@]12CC[C@@H]3c4ccc(O)cc4CC[C@H]3[C@@H]1CC[C@@H]2O [17β-estradiol],2.00
3,Oc1ccc(Cc2ccc(O)cc2)cc1 [Bisphenol F],−2
